Like-named read-outs stand apart in the source and are kept apart here.
Key:
[1] = tested on: SARS Coronavirus 2 recombinant with NanoLuc (SARS-CoV2-NLuc) in A549-hACE2 cells; assay: microbe, parasite or virus in culture; assay type: cell-based
[2] = tested on: Respiratory syncytial virus recombinant with luciferase (RSV-Luc5) in Normal Human Bronchial Epithelial (NHBE) cells; assay: microbe, parasite or virus in culture; assay type: cell-based
[3] = CC50 MT4 cytotoxicity (Cell-Titer Glo); assay type: cell-based; details: human
In short: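 CC50 values are the concentrations cutting viability by 50%, fitted by non-linear regression against untreated (100%) and 2 μM puromycin (0%) controls. Cell-Titer Glo luminescence measured after 4-5 days at 37° C exposure of uninfected MT-4 and HEp-2 cells to 3-fold dilutions spanning 15 nM to 100,000 nM.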

[4] = GI S9 stability - no PMSF; assay type: in vitro ADME; design: GIS9-HUMAN-NoPMSF T1/2: unit: min; details: human intestinal S9, PMSF-free; for half-life at 2 µM: pH 7.4, read-out: GIS9-HUMAN-NoPMSF T1/2
In short: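 Stability was assessed by Q-Exactive LC-MS peak area ratios against internal standard, tracking loss of parent and appearance of nucleoside metabolite Reference Compound A. Incubations used 2 μM compound in 1 mg/mL intestinal S9 without PMSF (PBS, pH 7.4), with six samples taken over 120 min.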

Plasma stability = assay type: in vitro ADME; design: unit not given here; details: 37° C., 2 μM substrate
In short: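 LC-MS (Q-Exactive, 5 ppm tolerance, 0.1% formic acid water/acetonitrile gradient) quantified compound in quenched aliquots. Aliquots were taken at 0.05, 0.5, 1, 2, 3 and 4 hr and quenched with internal-standard solution, and supernatants were diluted with water after centrifugation.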

[5] = tested on: Caco-2 cells (clone C2BBe1); assay: CACO-2 permeability; assay type: in vitro ADME; design: unit not given here; details: for DM Caco2 A to B: apical to basolateral, donor pH 6.5, receiver pH 7.4; for DM Caco2 B to A: basolateral to apical
In short: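 A-to-B and B-to-A flux measured by LC-MS/MS from receiver samples taken at 1 and 2 h, with donor sampled at 0 and 2 h and recovery checked. Buffers: pH 6.5 HBSS with 200 μM BNPP on the donor side, pH 7.4 with BSA on the receiver side. Monolayers were 21-day cultures, TEER-verified, in duplicate wells.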

[6] = tested on: Respiratory syncytial virus recombinant with luciferase (RSV-Luc5) in HEp-2 cells; assay: microbe, parasite or virus in culture; assay type: cell-based; details: human respiratory syncytial virus, HEp-2, 72 h, read-out: RSV Hep2 EC50
[7] = Stability in pH2 buffered solution; assay type: physicochemical
Procedure: Example N: Stability in p112 and p117 Buffered Solutions
The aqueous stability of compounds over a time of 24 hours at 40° C. was assessed. Stability was determined in 50 mM phosphate buffered solutions at both pH2 and pH7, with 150 mM NaCl (to achieve isotonicity). 3-5 mg of solid compounds were added to 7 mL scintillation vials. Acetonitrile was added to each vial to produce a 1 mg/mL stock solution. Stock solutions were diluted to 50 μg/mL in either pH2 or pH7 phosphate buffer, to a volume of 1 mL. For each compound and pH condition, 50 μg/mL samples were prepped in duplicate. One sample was placed on the UPLC tray at 40° C. for analysis, and the second sample was placed in a 40° C. oven for storage. Sample preps for each compound were offset by 40 minutes to account for run time on UPLC.
Concentration timepoints were measured at 0, 3, 6, 9, and 12 hrs. After 24 hrs, samples in the 40° C. oven were removed and analyzed by UPLC.
In FIG. 2, % AN stands for % area normalized. That is, % AN is the area of the compound peak relative to the sum of areas of all the peaks in the UPLC chromatogram. For example, if there were two peaks, compound peak with an area of 9 and another peak with an area of 1, then the % AN of the compound peak would be 90%.

[8] = A549, read-out: EC50 SARS CoV2 NanoLuc A549 384
[9] = read-out: EC50 RSVFluc-NHBE 384 V2

Compound	EC50 [1, 8] [µM]	EC50 [2, 9] [µM]	CC50 [3] [µM]	logD (physchem)	STA Human Plasma 37 (Plasma stability)	further results
C[C@@H](OC(=O)OC[C@H]1O[C@@](C#N)(c2ccc3c(N)ncnn23)[C@H](O)[C@@H]1O)[C@@H](C(=O)OCC(C)(C)C)N(C)C [Compound 147, neopentyl O-((((2R,3S,4R,5R)-5-(4-aminopyrrolo[2,1-f][1,2,4]triazin-7-yl)-5-cyano-3,4-dihydroxytetrahydrofuran-2-yl)methoxy)carbonyl)-N,N-dimethyl-L-threoninate]	2.85	2.47	> 50	2.5	–	–
C[C@@H](OC(=O)OC[C@H]1O[C@@](C#N)(c2ccc3c(N)ncnn23)[C@H](O)[C@@H]1O)[C@@H](C(=O)OC1CCOCC1)N(C)C [Compound 150, tetrahydro-2H-pyran-4-yl O-((((2R,3S,4R,5R)-5-(4-aminopyrrolo[2,1-f][1,2,4]triazin-7-yl)-5-cyano-3,4-dihydroxytetrahydrofuran-2-yl)methoxy)carbonyl)-N,N-dimethyl-L-threoninate]	2.37	3.08	> 50	1.3	–	–
CN(C)[C@@H](COC(=O)OC[C@H]1O[C@@](C#N)(c2ccc3c(N)ncnn23)[C@H](O)[C@@H]1O)C(=O)OCC1CCCC1 [Compound 152, cyclopentylmethyl O-((((2R,3S,4R,5R)-5-(4-aminopyrrolo[2,1-f][1,2,4]triazin-7-yl)-5-cyano-3,4-dihydroxytetrahydrofuran-2-yl)methoxy)carbonyl)-N,N-dimethyl-L-serinate]	1.28	3.63	> 50	2.2	–	–
C[C@@H](OC(=O)OC[C@H]1O[C@@](C#N)(c2ccc3c(N)ncnn23)[C@H](O)[C@@H]1O)[C@@H](C(=O)OC1CCCC1)N(C)C [Compound 149, cyclopentyl O-((((2R,3S,4R,5R)-5-(4-aminopyrrolo[2,1-f][1,2,4]triazin-7-yl)-5-cyano-3,4-dihydroxytetrahydrofuran-2-yl)methoxy)carbonyl)-N,N-dimethyl-L-threoninate]	2.42	2.55	> 50	2.2	–	–
N#C[C@@]1(c2ccc3c(N)ncnn23)O[C@H](COC(=O)OC23CC(C(F)(F)F)(C2)C3)[C@@H](O)[C@H]1O [Compound 139, [(2R,3S,4R,5R)-5-(4-aminopyrrolo[2,1-f][1,2,4]triazin-7-yl)-5-cyano-3,4-dihydroxy-tetrahydrofuran-2-yl]methyl [3-(trifluoromethyl)-1-bicyclo[1.1.1]pentanyl]carbonate]	–	1.64	> 50	2.2	150.07	half-life at 2 µM [4]: 1.37 min; DM Caco2 A to B [5]: 0.99; DM Caco2 B to A [5]: 12.98
CC(C)OC(=O)OC[C@H]1O[C@@](C#N)(c2ccc3c(NC(=O)C(C)C)ncnn23)[C@H](OC(=O)C(C)C)[C@@H]1OC(=O)C(C)C [Compound 75, (2R,3R,4R,5R)-2-cyano-2-(4-isobutyramidopyrrolo[2,1-f][1,2,4]triazin-7-yl)-5-(((isopropoxycarbonyl)oxy)methyl)tetrahydrofuran-3,4-diyl bis(2-methylpropanoate)]	–	–	> 50	–	277.1	EC50 [6]: 1.03 µM; EC50 ([1]; 48 h, read-out: SARS-CoV2 EC50): 5.06 µM; EC50 ([2]; 72 h, read-out: RSV NHBE EC50): 0.321 µM; half-life at 2 µM [4]: 0.884 min; pH 2 Stability 24 h % AN ([7]; pH2 phosphate buffer, 40° C., 24 h, Table N2): 0 % AN
CN(C)[C@@H](COC(=O)OC[C@H]1O[C@@](C#N)(c2ccc3c(N)ncnn23)[C@H](O)[C@@H]1O)C(=O)OC1CCCC1 [Compound 153, cyclopentyl O-((((2R,3S,4R,5R)-5-(4-aminopyrrolo[2,1-f][1,2,4]triazin-7-yl)-5-cyano-3,4-dihydroxytetrahydrofuran-2-yl)methoxy)carbonyl)-N,N-dimethyl-L-serinate]	2.67	3.24	> 50	1.7	–	–
CC(C)C(=O)OC[C@H]1O[C@@](C#N)(c2ccc3c(N)ncnn23)[C@H](OC(=O)C(C)C)[C@@H]1OC(=O)C(C)C [2nd Ester Reference Compound]	–	–	–	–	–	Stability at pH2, 0 hr ([7]; 0 h, 50 µg/mL, pH 2): 100.0 % AN; Stability at pH2, 3 hr ([7]; 3 h, 50 µg/mL, pH 2): 100.0 % AN; Stability at pH2, 6 hr ([7]; 6 h, 50 µg/mL, pH 2): 100.0 % AN; Stability at pH2, 9 hr ([7]; 9 h, 50 µg/mL, pH 2): 98.3 % AN; Stability at pH2, 12 hr ([7]; 12 h, 50 µg/mL, pH 2): 97.7 % AN; Stability at pH2, 24 hr ([7]; 24 h, 50 µg/mL, pH 2): 96.2 % AN
CC(C)OC(=O)[C@H](COC(=O)OC[C@H]1O[C@@](C#N)(c2ccc3c(N)ncnn23)[C@H](O)[C@@H]1O)N(C)C [Compound 151, isopropyl O-((((2R,3S,4R,5R)-5-(4-aminopyrrolo[2,1-f][1,2,4]triazin-7-yl)-5-cyano-3,4-dihydroxytetrahydrofuran-2-yl)methoxy)carbonyl)-N,N-dimethyl-L-serinate]	2.76	2.89	> 50	1.3	–	–
N#C[C@@]1(c2ccc3c(N)ncnn23)O[C@H](COC(=O)OCCCCCCC(=O)O)[C@@H](O)[C@H]1O [Compound 143, 7-(((((2R,3S,4R,5R)-5-(4-aminopyrrolo[2,1-f][1,2,4]triazin-7-yl)-5-cyano-3,4-dihydroxytetrahydrofuran-2-yl)methoxy)carbonyl)oxy)heptanoic acid]	35.4	> 50	> 50	< 0.3	800.58	GIS9-HUMAN-NoPMSF T1/2 [4]: 789
C[C@@H](OC(=O)OC[C@H]1O[C@@](C#N)(c2ccc3c(N)ncnn23)[C@H](O)[C@@H]1O)[C@@H](C(=O)OCC1CCCC1)N(C)C [Compound 148, (2S,3R)-cyclopentylmethyl 3-(((((2R,3S,4R,5R)-5-(4-aminopyrrolo[2,1-f][1,2,4]triazin-7-yl)-5-cyano-3,4-dihydroxytetrahydrofuran-2yl)methoxy)carbonyl)oxy)-2-(dimethylamino)butanoate]	2.05	2.1	> 50	2.7	–	–
CC(C)(C)OC(=O)C(C)(C)OC(=O)OC[C@H]1O[C@@](C#N)(c2ccc3c(N)ncnn23)[C@H](O)[C@@H]1O [Compound 138, tert-butyl 2-[[(2R,3S,4R,5R)-5-(4-aminopyrrolo[2,1-f][1,2,4]triazin-7-yl)-5-cyano-3,4-dihydroxy-tetrahydrofuran-2-yl]methoxycarbonyloxy]-2-methyl-propanoate]	21.2	> 50	> 50	2	–	–
N#C[C@@]1(c2ccc3c(N)ncnn23)O[C@H](COC(=O)OC2CCOCC2)[C@@H](O)[C@H]1O [Compound 50, ((2R,3S,4R,5R)-5-(4-aminopyrrolo[2,1-f][1,2,4]triazin-7-yl)-5-cyano-3,4-dihydroxytetrahydrofuran-2-yl)methyl (tetrahydro-2H-pyran-4-yl) carbonate]	–	–	> 50	–	430.4	EC50 [6]: 1.92 µM; EC50 ([1]; 48 h, read-out: SARS-CoV2 EC50): 20.4 µM; EC50 ([2]; 72 h, read-out: RSV NHBE EC50): 1.37 µM; half-life at 2 µM [4]: 15.2 min; DM Caco2 A to B [5]: 0.13; DM Caco2 B to A [5]: 2.76

Reference: patent US12448383B2, “Compounds and methods for treatment of viral infections” (priority 2022, dated 2025)
